Data as given in patent publication US10143697B2, “Pharmaceutic composition comprising of HDAC inhibitor and a steroid and the use thereof” (VALCURIA AB, priority 2011, dated 2018).
Where two headings read alike, the source gives them in different places.

Columns and labels:
[1] = system: Karpas-422 cells; assay: cell viability by trypan blue exclusion after 72 hours, VPA alone or in combination with CHOP; format: cell-based; conditions: Homo sapiens, KARPAS-422, 72 h; for viability at 100 µM: 0.1 mM VPA; for viability at 2000 µM: 2 mM VPA; for viability at 10000 µM: 10 mM VPA
Protocol: (§1) The DLBCL cell lines WSU-NHL, Karpas-422, ULA, SU-DHL-5 and SU-DHL-8 cells were treated for 72 hours with three different concentrations (0.1 mM, 2 mM and 10 mM respectively) of valproic acid (VPA) alone, or in combination with CHOP. The CHOP regimen used in all examples consists of 10 μM cyclophosphamide monohydrate, 20 nM doxorubicin hydrochloride, 2 nM vincristine sulfate and 20 μg/ml prednisolone. (Ageberg, Rydström, Lindén, Linderoth, Jerkeman and Drott; Exp Cell Research; May 1; 317(8):1179-91).
(§2) The cell viability was assessed after 72 hours by trypan blue exclusion and normalised to untreated control cells at day 0 (seeding). Data are presented as mean±SEM, n=3.

[2] = system: SU-DHL-5 cells; assay: as above; format: cell-based; conditions: Homo sapiens, SU-DHL-5, 72 h; for viability at 100 µM: 0.1 mM VPA; for viability at 2000 µM: 2 mM VPA; for viability at 10000 µM: 10 mM VPA
Protocol: as §1, §2

[3] = system: SU-DHL-8 cells; assay: as above; format: cell-based; conditions: Homo sapiens, SU-DHL-8, 72 h; for viability at 100 µM: 0.1 mM VPA; for viability at 2000 µM: 2 mM VPA; for viability at 10000 µM: 10 mM VPA
Protocol: as §1, §2

[4] = system: ULA cells; assay: as above; format: cell-based; conditions: for viability at 100 µM: 0.1 mM VPA; for viability at 2000 µM: 2 mM VPA; for viability at 10000 µM: 10 mM VPA
Protocol: as §1, §2

[5] = system: WSU-NHL cells; assay: as above; format: cell-based; conditions: Homo sapiens; for viability at 100 µM: 0.1 mM VPA; for viability at 2000 µM: 2 mM VPA; for viability at 10000 µM: 10 mM VPA
Protocol: as §1, §2

[6] = system: SU-DHL-8; assay: cell viability time course by trypan blue exclusion, 0.5 mM or 1.5 mM VPA alone or with CHOP; format: cell-based; conditions: Homo sapiens, read-out: Viability (% of control cells day 1); for viability at 500 µM: SU-DHL-8, 0.5 mM VPA; for viability at 1500 µM: SU-DHL-8, 1.5 mM VPA
Protocol: (§3) The DLBCL cell lines SU-DHL-8 (Table 2A) and WSU-NHL (Table 2B) were treated for 72 hours with 0.5 mM or 1.5 mM VPA alone, or in combination with CHOP. The concentration of 0.5 mM VPA was chosen because it is a normal serum concentration during continuous VPA treatment in patients with epilepsy. The concentration of 1.5 mM VPA was chosen because it is the maximal tolerated serum concentration during 5 day VPA treatment for compassionate use as noted by the inventor.
(§4) The cell viability was assessed after 0 (Day 1), 24 (Day 2), 48 (Day 3) and 72 (Day 4) hours respectively, by trypan blue exclusion and normalised to untreated control cells. Data are presented as mean, n=3.
(§5) Treatment effects on viability were tested against the effects of CHOP treatment alone. […] All tests were two-sided. Effects were considered statistically significant at P<0.05 (*) and P<0.01 (**).
(§6) Viability (% of control cells day 1) are shown in Table 2A (SU-DHL-8) and Table 2B (WSU-NHL, n=3) respectively.

[7] = system: WSU-NHL; assay: as above; format: cell-based; conditions: Homo sapiens, read-out: Viability (% of control cells day 1); for viability at 500 µM: 0.5 mM VPA; for viability at 1500 µM: 1.5 mM VPA
Protocol: as §3, §4, §5, §6

[8] = system: SU-DHL-8 cells; assay: Rituximab antibody-dependent cellular cytotoxicity (ADCC) with NK cells, dead target cells PKH26/7-AAD double positive; format: cell-based
Protocol: (§7) To estimate the impact of VPA on the antibody-dependent-cellular cytotoxicity (ADCC) induced by the CD20 antibody Rituximab. […]
(§8) NK cells were added as an effector to target cell ratio of 10:1, thereafter the cells were incubated for an additional 20 hours. Dead target cells were identified as double positive for PKH26 and 7-AAD and used as readout of the assay.

[9] = system: WSU-NHL cells; assay: as above; format: cell-based
Protocol: as §7, §8

[10] = system: WSU-NHL cells; assay: pretreatment with VPA and prednisolone before CHOP, viability by trypan blue exclusion; format: cell-based; conditions: pretreatment with VPA alone before CHOP
Description: Pretreatment with VPA before CHOP could theoretically increase the response to CHOP therapy through induction of DNA damage. However, VPA treatment could result in symptoms such as somnolence in a patient. These symptoms could be counteracted by simultaneous treatment with prednisolone. […] All tests were two-sided.

[11] = system: histone H3; assay: acetylation of histone H3 by western blot analysis in DLBCL cell line model; format: cell-based; conditions: valproic acid at pharmacological concentrations
[12] = VPA serum concentration in patients; format: in vivo, human; conditions: 5 day VPA treatment for compassionate use as noted by the inventor
Protocol: as §3

[13] = continuous VPA treatment in patients with epilepsy; cited from earlier work
[14] = 1.5 mM VPA for 24 hours before rituximab
[15] = Rituximab 0 μg/ml, +NK Cells + 1.5 mM VPA

`CCCC(CCC)C(=O)O` [VPA, valproic acid] showed a viability at 100 µM ([1]; +CHOP) of 80%, a viability at 100 µM ([1]; −CHOP) of 100% and a viability at 2000 µM ([1]; +CHOP) of 67%. The viability at 2000 µM ([1]; −CHOP) was 102%, the viability at 10000 µM ([1]; +CHOP) was 21% and the viability at 10000 µM ([1]; −CHOP) was 21%. The viability at 100 µM ([2]; +CHOP) was 26%, the viability at 100 µM ([2]; −CHOP) was 124% and the viability at 2000 µM ([2]; +CHOP) was 1%. The viability at 2000 µM ([2]; −CHOP) was 53%, the viability at 10000 µM ([2]; +CHOP) was 0% and the viability at 10000 µM ([2]; −CHOP) was 0%. The viability at 100 µM ([3]; +CHOP) was 55%, the viability at 100 µM ([3]; −CHOP) was 105% and the viability at 2000 µM ([3]; +CHOP) was 0%. The viability at 2000 µM ([3]; −CHOP) was 67%, the viability at 10000 µM ([3]; +CHOP) was 0% and the viability at 10000 µM ([3]; −CHOP) was 0%. For the same molecule, the viability at 100 µM ([4]; +CHOP) was 73%, the viability at 100 µM ([4]; −CHOP) was 105% and the viability at 2000 µM ([4]; +CHOP) was 52%. The viability at 2000 µM ([4]; −CHOP) was 52%, the viability at 10000 µM ([4]; +CHOP) was 42% and the viability at 10000 µM ([4]; −CHOP) was 50%. It also gave a viability at 100 µM ([5]; +CHOP) of 63%, a viability at 100 µM ([5]; −CHOP) of 99% and a viability at 2000 µM ([5]; +CHOP) of 6%. The viability at 2000 µM ([5]; −CHOP) was 29%, the viability at 10000 µM ([5]; +CHOP) was 0% and the viability at 10000 µM ([5]; −CHOP) was 1%. It also gave a viability at 500 µM ([6]; Day 1 (0 hours)) of 100%, a viability at 500 µM ([6]; Day 2 (24 hours)) of 102% and a viability at 500 µM ([6]; Day 3 (48 hours)) of 101%. The viability at 500 µM ([6]; Day 4 (72 hours)) was 94%, the viability at 1500 µM ([6]; Day 1 (0 hours)) was 100% and the viability at 1500 µM ([6]; Day 2 (24 hours)) was 97%. It also gave a viability at 1500 µM ([6]; Day 3 (48 hours)) of 64%, a viability at 1500 µM ([6]; Day 4 (72 hours)) of 59% and a viability at 500 µM ([7]; Day 1 (0 hours)) of 100%. For the same molecule, the viability at 500 µM ([7]; Day 2 (24 hours)) was 97%, the viability at 500 µM ([7]; Day 3 (48 hours)) was 99% and the viability at 500 µM ([7]; Day 4 (72 hours)) was 98%. The viability at 1500 µM ([7]; Day 1 (0 hours)) was 100%, the viability at 1500 µM ([7]; Day 2 (24 hours)) was 95% and the viability at 1500 µM ([7]; Day 3 (48 hours)) was 68%. For the same molecule, the viability at 1500 µM ([7]; Day 4 (72 hours)) was 36%, the “effect on Rituximab induced ADCC” value [8, 14] was “does not affect Rituximab induced ADCC” and the “percentage of dead cells, Mean” value [8, 15] was 34%. For the same molecule, the “effect on Rituximab induced ADCC” value [9, 14] was “does not affect Rituximab induced ADCC”, the “percentage of dead cells, Mean” value [9, 15] was 27% and the “sensitization to CHOP-treatment” value [10] was “sensitizes lymphoma cell lines to CHOP-treatment”. The “acetylation of histone H3” value [11] was “increase in acetylation of histone H3”, the “maximal tolerated serum concentration” value [12] was 1.5 mM and the normal serum concentration [13] was 0.5 mM.
